Data as given in patent US4315020A, “Oxazoline (trifluoroethyl) amine” (Science Union et Cie, priority 1976, dated 1982).
Each block holds one compound with its values, some of them ahead of it.

Experiment: solubility
Assay type: physicochemical
Conditions: for solubility in the stoichiometric amount of N/10 hydrochloric acid: N/10 hydrochloric acid solution

Compound: FC(F)(F)C(NC1=NCCO1)c1ccccc1 (single isomer, unassigned) [XII, levorotatory 2-[α-trifluoromethylbenzylamino] oxazoline]
solubility in dilute hydrochloric acid (dilute hydrochloric acid): solbuble

solubility in a N/10 aqueous solution of hydrochloric acid (N/10 aqueous hydrochloric acid): soluble
Compound: Cn1cccc1C(NC1=NCCO1)C(F)(F)F (racemic) [XIV, dl α-trifluoromethyl 2-[(N-methylpyrrolyl-2)methylamino] oxazoline]

solubility in the stoichiometric amount of N/10 hydrochloric acid (stoichiometric amount): soluble
Compound: FC(F)(F)C(NC1=NCCN1)c1ccccc1 (racemic) [I, 2(α-phenyl trifluoroethylamino) imidazoline]

solubility in the stoichiometric amount of N/10 hydrochloric acid (stoichiometric amount): soluble
Compound: FC(F)(F)C(NC1=NCCO1)c1ccc[nH]1 (racemic) [XVI, dl α-trifluoromethyl 2-[(pyrrolyl-2)methylamino] oxazoline]

solubility in the stoichiometric amount of dilute hydrochloric acid (stoichiometric amount, dilute hydrochloric acid): soluble
Compound: FC(F)(F)C(NC1=NCCO1)c1ccco1 (racemic) [X, dl 2-[α-trifluoromethyl (furyl-2)methylamino] oxazoline]

Compound: CN(C1=NCCO1)C(c1ccccc1)C(F)(F)F (racemic) [XV, dl α-trifluoromethyl 2-(N-methylbenzylamino) oxazoline]
solubility in an aqueous solution of hydrochloric acid (aqueous hydrochloric acid): soluble
solubility in the most of the organic solvents (most organic solvents): soluble

Compound: Cc1ccccc1C(NC1=NCCO1)C(F)(F)F (racemic) [XIX, dl 2-[(2-methylphenyl) ααα-trifluoroethyl]amino oxazoline]
solubility in the aqueous solution of mineral acids (aqueous mineral acids): soluble
solubility in the usual organic solvents (usual organic solvents): soluble
